# “Also recorded” adds a separate entry of the source.
# Experiments:
# Assay type in all cases: cell-based
# [1] = tested on: breast cancer cell lines (MDA-MB-231, MCF-7, MDA-MB-468, SKBR3 and MDA-MB-435); experiment: Cell growth curves, trypan blue exclusion assay; details: 0, 5, 10, 20 μM; 1-5 days
# Procedure: The inventors examined the effects of IBR2 on the growth and viability of a panel of breast cancer cell lines. Five exponentially growing breast cancer cell lines (MDA-MB-231, MCF-7, MDA-MB-468, SKBR3 and MDA-MB-435) were incubated with IBR2 at various concentrations (0, 5, 10 and 20 μM) for various periods of time (1, 2, 3, 4 and 5 days). The viable cell numbers were then counted by trypan blue exclusion assay. […] We also examined the effects of IBR2 on the growth and viability of cultured breast cancer cells (MDA-MB-468, MDA-MB-435, MCF-7, T47D) using the 3-(4,5-dimethylthiazol-2-yl)-2,5-diphenyltetrazolium bromide (MTT) assay.
# Cell proliferation assay and clonogenic survival assays: To obtain cell growth curves, 1×10^4 cells were seeded in 12-well plate for 24 hours. Cells were then treated, in duplicate, with various concentrations of IBR2 in the presence of 0.4% DMSO. The viable cells were counted by trypan blue exclusion assay daily. MTT assay was performed as previously described (Alley et al., 1988).
# MCF-7 cells [2] = experiment: Cell cycle analysis by flow cytometry (FACS); details: 20 μM IBR2, time-dependent
# Procedure: To explore the mechanism of how IBR2 inhibits cancer cell growth, the inventors analyzed cell cycle progression of IBR2 treated MCF-7 cells by flow cytometry (FACS).
# Cell cycle analysis by flow cytometry: To analyze cell cycle distribution, […] MCF-7 cells were seeded in 10-cm dishes for 24 hours and treated with […] IBR2 for various times. Cells were then trypsinized and fixed with 70% ethanol (−20° C.) and stained for 30 minutes with propidium iodide (PI) staining solution (Yun et al., 2005) (50 μg/ml PI, 0.1% sodium citrate, 50 μg/ml RNase A, 0.03% NP-40 in PBS). Flow cytometry analysis was performed using a FACScalibur flow cytometer and cell cycle distribution was analyzed with CellQuest software (Beckton Dickison). 10,000 events were analyzed for each sample and the experiment was repeated twice.
# MCF-7 cells [3] = experiment: Fate of S phase cells after hydroxyurea synchronization (BrdU uptake, mitotic index, viable cells)
# Procedure: To further examine the fate of cells in S phase upon IBR2 treatment, MCF-7 cells were synchronized at G1/S transition by hydroxyurea treatment and then released to allow S phase entry by washing out the reagents. These cells were treated with 20 μM IBR2 and BrdU, and BrdU uptake was measured for DNA synthesis, as well as the mitotic index and the number of viable cells during an 18-hour period. […] Moreover, the number of mock treated cells doubled at the completion of M phase, while the number of IBR2 treated cells decreased to around 50%.
# Cell culture, cell synchronization, BrdU labeling and determination of mitotic index: Breast cancer cell lines and MEF cell lines were cultured in high-glucose Dulbecco modified Eagle medium containing 10% fetal bovine serum. MCF-10A cells were cultured as described previously (Debnath et al., 2003). Cell synchronization at M phase was achieved by treatment with 0.1 μg/ml nocodazole for 8 hours. Cell synchronization at G1/S boundary was achieved by treatment with 1 mM hydroxyurea for 17 hours, 9 hours of release and again with 1 mM hydroxyurea for 14 hours. For BrdU labeling, cells were incubated with BrdU for 30 minutes and fixed for BrdU immunostaining using a BrdU labeling kit (Amersham Biosciences). For determination of mitotic index, cells were fixed in 4% formaldehyde in PBS containing 0.1 μg/ml DAPI for 30 minutes at room temperature and examined by fluorescence microscopy. 500-1000 nuclei per sample were counted to determine the number of M phase cells which only includes prometaphase, metaphase, anaphase and telophase.
# MCF-7 cells [4] = experiment: Western blot of protein levels; details: 20 mM IBR2, time dependent
# Source text: To examine the impact of IBR2 on Rad51 protein expression, IBR2 treated MCF-7 cells was examined by straight western blot probed with a panel of antibodies against BRCA2, Rad51, Rad50, p84 and Rb. […] Consistent with our FACS analysis (FIG. 4A), the hypo-phosphorylated form of Rb, a marker for G1 phase, was the major form observed in the later time points, further confirming that IBR2 arrests cells at G1 phase (FIG. 4A). It has been reported that BRCA2 level is cell cycle dependent, which expresses low in G1 phase and peaks at G1/S boundary. Therefore the decreased level of BRCA2 in IBR2 treated cells may be due to G1 phase arrest. Different from BRCA2 protein, Rad51 protein is expressed constant throughout the cell cycle in MCF-7 cells (data not shown). Therefore, loss of Rad51 protein may be the direct effect of IBR2 treatment instead of the consequence of G1 arrest. To test whether IBR2 decreases Rad51 levels by destabilization, the inventors performed a stability assay by adding cyclohexamide (CHX) to inhibit de novo protein synthesis. […] Therefore, the inventors contemplate that IBR2 treated MCF-7 cells were arrested at G1, blocked at M phase entry, and died at S/G2 phase.
# Western blot analysis: Cells were treated with 20 mM IBR2 or 50 μg/ml cycloheximide (CHX) or 1 μM MG132 and harvested at different time points for western blot analysis. Cells resuspended in Lysis 250 buffer were subjected to three freeze/thaw cycles (liquid nitrogen/37° C.) and then centrifuged at 14,000 rpm for 2 minutes at room temperature. After measuring protein concentration, equal amount of total cellular proteins were subjected to SDS-PAGE and immunoblot analyses were performed as described previously (Chen et al., 1999). Antibodies used were: Rad51 (rabbit 5952); BRCA2 (rabbit PC146, Oncogene); Rb (mAb 11D7); Rad50 (mAb 13B3) and p84 (mAb 5E10). The intensity of bands was quantified by densitometry using Labworks 4.5 software. The relative value of the band intensity was calculated with respect to that of untreated sample after normalization with the p84 signal.
# Rad51 in MCF-7 cells = experiment: Rad51 stability assay with cyclohexamide; details: with cyclohexamide; control cells 5.5 hours
# Source text: To examine the impact of IBR2 on Rad51 protein expression, IBR2 treated MCF-7 cells was examined by straight western blot probed with a panel of antibodies against BRCA2, Rad51, Rad50, p84 and Rb. […] Consistent with our FACS analysis (FIG. 4A), the hypo-phosphorylated form of Rb, a marker for G1 phase, was the major form observed in the later time points, further confirming that IBR2 arrests cells at G1 phase (FIG. 4A). It has been reported that BRCA2 level is cell cycle dependent, which expresses low in G1 phase and peaks at G1/S boundary. Therefore the decreased level of BRCA2 in IBR2 treated cells may be due to G1 phase arrest. Different from BRCA2 protein, Rad51 protein is expressed constant throughout the cell cycle in MCF-7 cells (data not shown). Therefore, loss of Rad51 protein may be the direct effect of IBR2 treatment instead of the consequence of G1 arrest. […]
# Western blot analysis: Cells were treated with […] or 50 μg/ml cycloheximide (CHX) or 1 μM MG132 and harvested at different time points for western blot analysis. […] The intensity of bands was quantified by densitometry using Labworks 4.5 software. The relative value of the band intensity was calculated with respect to that of untreated sample after normalization with the p84 signal.
# CAPAN-1 = experiment: Sensitivity of BRCA2-truncated pancreatic cancer cell line; details: preliminary results
# Source text: The absence of BRCA2 in cells also appears to have a significant impact on Rad51 stability rendering them much more sensitive to IBR2 treatment. […] It is therefore contemplated that IBR2 may be particularly useful in treating cancer cells lacking functional BRCA2 (or having a reduced BRCA2 expression) albeit only a small fraction of cancer.
smiles,measurement,setting,value
"O=S(=O)(Cc1ccccc1)N1C=Cc2ccccc2C1c1c[nH]c2ccccc12 (stereo not shown) [IBR2, 2-(benzylsulfonyl)-1-(1H-indol-3-yl)-1,2-dihydroisoquinoline]",growth of breast cancer cell lines (viable cell numbers),[1],retarded growth of breast tumor cells in culture; also recorded: significantly inhibited the growth
same,G1 fraction,MCF-7 cells [2],increased
same,S and G2/M fractions,MCF-7 cells [2],depleted
same,sub-G1 fraction (apoptotic cells),MCF-7 cells [2],significantly increased
same,"DNA synthesis (BrdU uptake), S phase progression","MCF-7 cells [3]; 20 μM IBR2, 18-hour period",does not interfere with S phase progression
same,mitotic index (M phase entry),"MCF-7 cells [3]; 20 μM IBR2, 18-hour period",no or little IBR2 treated cells entered M phase
same,viability at 20 µM,"MCF-7 cells [3]; Homo sapiens, MCF7, 20 μM IBR2, at completion of M phase, read-out: number of viable cells",~50%
same,BRCA2 protein level,MCF-7 cells [4],decreased dramatically
same,Rad50 protein level,MCF-7 cells [4],remained constant
same,Rad51 protein level,MCF-7 cells [4],decreased dramatically
same,p84 protein level,MCF-7 cells [4],remained constant
same,half-life of Rad51,Rad51 in MCF-7 cells,1.5 h
same,sensitivity of CAPAN-1 to IBR2,CAPAN-1,significant sensitivity
